The values below are quoted from earlier work in US20040247689A1, “Process for preparing a pharmaceutical active ingredient with high specific surface area” (priority 2003, published 2004).

Structures are written as SMILES.

With `OCc1cc(C(O)CNCCCCCCOCCCCc2ccccc2)ccc1O` (centres unmarked) [salmeterol xinafoate], the solubility in chloroform result (chloroform) is given as “slightly soluble”. In addition, the solubility in ethanol entry (ethanol) is “slightly soluble”. For the same compound, the solubility in isopropanol result (isopropanol) is recorded as “slightly soluble”. The solubility in methanol entry (methanol) is “freely soluble”. For the same compound, under “water”, the solubility in water result was “sparingly soluble”.
